Where only a bound is given, the exact number is not on record here.

By Kd is commonly meant the concentration at which binding is half-saturated. Read a high Kd as a looser complex. One may read the IC50 as the midpoint of a concentration-inhibition curve. Read a low IC50 as greater potency. The Ki is the dissociation constant of the complex between target and ligand, obtained from inhibition or displacement. High values mean weaker binding, low ones tighter binding.

The first data set deals with T1, Hepatitis A virus cellular receptor 2 (Homo sapiens, UniProt Q8TDQ0).
T1 sequence (Q8TDQ0 whole entry): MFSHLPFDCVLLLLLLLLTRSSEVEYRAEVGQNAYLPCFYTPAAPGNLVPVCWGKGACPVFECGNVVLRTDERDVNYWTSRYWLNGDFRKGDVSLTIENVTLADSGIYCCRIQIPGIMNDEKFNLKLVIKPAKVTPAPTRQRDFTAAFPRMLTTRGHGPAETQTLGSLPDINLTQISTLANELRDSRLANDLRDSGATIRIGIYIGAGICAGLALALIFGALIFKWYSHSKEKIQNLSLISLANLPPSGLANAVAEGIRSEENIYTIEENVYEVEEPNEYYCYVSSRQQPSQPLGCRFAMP
Conditions: not given
Turning to `CN(C)CCn1c(=S)[nH]c2ccccc2c1=O`, the Kd was 530 µM. The compound `Cc1ccc(Nc2ncnc3c2cnn3C)cc1` had a Kd of 850 µM. Same read-out and setting: the figure for `Cc1cc(-c2nc3ncccc3o2)ccc1N` is 460 µM. The same measure, in the same setting: the figure for `Cc1cccc(Nc2cc(=O)n(C)c(=O)n2C)c1` is 1400 µM. The same measure, in the same setting: the figure for `Oc1nc2ccccc2c2nc(-c3ccccc3)nn12` is above 2000 µM. `Cc1nc2c3cc(-c4ccncc4C)c(Cl)cc3[nH]c(=O)n2n1` had a Kd of 10 µM. The same measure, in the same setting: with `O=C1CC(c2ccccc2)c2cc3c(cc2N1)OCO3` (stereo not drawn) the figure was above 2000 µM. Still for that read-out and setting: with `Sc1nc2cc(Cl)ccc2[nH]1` the figure was 670 µM.

The target in a further data set is T1, Hepatitis A virus cellular receptor 2. Nature of the data set: Displacement of FITC-labelled 5-(((8-Chloro-9-(3-methylpyridin-4-yl)-5-oxo-5,6-dihydro-[1,2,4]triazolo[1,5-c]quinazolin-2-yl)methyl)carbamoyl)-2-(6-hydroxy-3-oxo-3H-xanthen-9-yl)benzoic acid probe from human TIM-3 IgV domain (residues 22 to 130) expressed in Escherichia coli BL21 (DE3) by FPA competition assay.
Conditions: not given
`Cc1nc2c3cc(-c4ccncc4C)c(Cl)cc3[nH]c(=O)n2n1` had an IC50 of 53 µM and a Ki of 4.9 µM.

System in another data set: not listed separately
Briefly: Aqueous solubility of the compound. Format: physicochemical. The note with it: buffer.
With `Oc1nc2ccccc2c2nc(-c3ccccc3)nn12`, the solubility entry is “Insoluble”. Same read-out and setting: the entry for `Cc1nc2c3cc(-c4ccncc4C)ccc3[nH]c(=O)n2n1` is “Insoluble”; for `Cc1nc2c3cc(Br)ccc3[nH]c(=O)n2n1` it is “Insoluble”.

For the origin of these results see ChEMBL document CHEMBL4842382, “Fragment-Based Discovery of Small Molecules Bound to T-Cell Immunoglobulin and Mucin Domain-Containing Molecule 3 (TIM-3)” (J Med Chem, 2021).
